Test results reported in publication PMC8040415, “Para-chloro-2-[^18F]fluoroethyl-etomidate: A promising new PET radiotracer for adrenocortical imaging” (International Journal of Medical Sciences, 2021).
pIC50, pKd: −log10 of the molar value. Several values for one entry are separate records, joined by “and”; a condition that tells them apart may be missing. Equal entries are not always repeated. Entries after “also recorded” stand apart in the source; their conditions may differ.

How the values were obtained:
[1] = PET/CT in non-human primate with kinetic modelling; type: in vivo, Macaca fascicularis; settings: for time of peak uptake in the adrenal glands: SUVmean time-activity curves
Protocol: One female NHP, Macaca fascicularis, was obtained from the Astrid Fagræus Laboratory, Karolinska Institute, Comparative Medicine. The NHP was used to compare the [^18F]CETO and [^11C]MTO biodistribution and their uptake over time in adrenal and liver.
Ketamine (~10 mg/kg) was used as a sedative. Whilst being transported to the PET centre at Uppsala University Hospital, the NPH was weighed and maintained on iterated ketamine injections (15 mg/kg/h). Saturation levels were continuously measured through pulse oximetry, and oxygen administered as needed.
At the PET centre, the NPH was intubated under propofol-induced anaesthesia. General anaesthesia was maintained by sevoflurane inhalation (1.5 - 5.0%) and artificial ventilation. Two venous catheters were placed - one for blood sampling and one for tracer administration. Body temperature, heart rate, ECG, pCO2, pO2, SaO2 and blood pressure levels were monitored throughout the PET study. A General Electric Discovery MI PET/CT scanner (GE Healthcare, Milwaukee, USA) was used.
PET/CT positioning was determined by using a scout CT scan, and 6.5 MBq/kg of [^11C]MTO was administered I.V. through the catheter. A baseline dynamic 90 min PET scan over the abdomen was started. After a sufficient waiting period, to allow for the radioactive decay of carbon-11, 4.2 MBq/kg of [^18F]CETO was injected I.V. A 90 min baseline dynamic PET scan was started and was followed by a 15 min whole-body PET examination. Thereafter, a blockage study was performed by administering 0.5 mg/kg etomidate I.V. for 20 min. At the end of etomidate administration, corresponding to approximately 150 min after the baseline [^18F]CETO injection, 19.3 MB/kg of [^18F]CETO was administered I.V., followed by a 90 min dynamic PET scan. The amount of radioactivity used in the blocking study was nearly fivefold that used during the baseline PET examination, in order to render any remaining activity from the baseline scan negligible. During both [^18F]CETO PET scans, discrete venous blood samples (~2 mL) were collected in heparinized tubes at 5, 10, 20, 40 and 80 min p.i. (3 mL at the last time point) of [^18F]CETO to measure radioactivity in whole blood and in plasma and for metabolite analysis. PET images were reconstructed using an ordered-subsets maximisation (OSEM) algorithm including time-of-flight information and resolution recovery. Dynamic images were reconstructed into time frames with increasing durations.
In the PET images, volumes of interest (VOIs) were drawn over representative subsets of aorta, adrenals, kidneys, liver, lungs, pancreas and spleen and transferred to all dynamic time frames to obtain time-activity curves (TACs), showing SUV as a function of time, after normalization to injected activity per body weight. Plasma TACs were determined by multiplying the aorta TAC with the mean plasma-to-whole blood ratio of the five analysed blood samples. Then, a metabolite-corrected input curve, representing intact tracer in plasma, was calculated by multiplying the plasma TAC with a sigmoid fit to the measured parent fraction data.
Adrenal time-activity curves were fitted using single-tissue as well as irreversible and reversible two-tissue compartment models. The optimal model to describe the data was determined using the Akaike information criterion. In addition, data were analysed using the Patlak and Logan graphical analysis methods, assuming irreversible and reversible kinetics, respectively. Additionally, whole-body net uptake rate parametric images were calculated using the Patlak method.

[2] = target: NHP adrenal gland tissue; assay: Competition binding assay against 10 nM [^18F]CETO; set-up: species or system cynomolgus monkey (non-human primate; settings: residual binding of 10 nM [^18F]CETO, NHP adrenal gland tissue 200 µg/mL, 60 min, room temperature
Protocol: (§1) Normal NHP adrenal tissue was weighed and homogenized in 20 volumes of ice-cold 0.32 M sucrose and stored in aliquots at -80 °C until use. For the saturation binding study, the homogenate was further diluted to 20 µg/mL in the assay. Triplicates of each ligand concentration in the range of 0.03-30 nmol/L [^18F]CETO, with and without a competing ligand (1 µmol/L metomidate), were incubated at room temperature for 60 min. For the competition binding assay, 200 µg/mL of NHP adrenal gland tissue was used. Triplicate tubes, containing 10 nM [^18F]CETO were incubated for 60 min at room temperature with three competing ligands, MTO, FETO and CETO, at concentrations between 0 and 30 nmol/L, respectively.
(§2) The incubations were terminated by filtration under vacuum through Whatman GF/C glass fibre filters, using a cell harvester (Brandel, Gaithersburg, MD). The filters were washed four times with 3 mL PBS buffer and transferred to scintillation tubes where the trapped radioactivity was measured in an automated gamma counter (Wizard 2480, PerkinElmer Downers Grove, IL, USA).
(§3) The saturation study was repeated twice with normal NHP adrenal gland tissue and the results were used to calculate the equilibrium dissociation constant, Kd, and the total target density for the binding of [^18F]CETO, Bmax. Values for IC50, Bmax and Kd were estimated by GraphPad Prism 8.2, using non-linear regression of the binding curves.

[3] = PET-MRI in rats with and without metomidate blocking; type: in vivo, Sprague Dawley rats
Description: Sevoflurane inhalation was used for the induction and maintenance of anaesthesia, and an intravenous catheter was placed in the lateral tail vein. After the investigations, the mice/rats were euthanized and their organs harvested and weighed, followed by measurement of radioactivity (as previously described). PET and MRI images were acquired on a Nanoscan PET-3TMRI scanner (Mediso Mediso, Medical Imaging Systems, Budapest, Hungary).
Two male Sprague Dawley rats were positioned on the heated bed of the scanner and a dynamic PET acquisition of the abdomen was initiated immediately before injection of 4-5 MBq of [^18F]CETO. Metomidate (1 µmol/kg) was co-injected in one of the rats as a blocker. The dynamic PET scan was continued for 60 min and was followed by a whole-body static scan, 3 beds, 5 min per bed position ~90 min post injection, and by MRI of the abdomen.
PET acquisition was initiated and 4.0-4.8 MBq of […] was intravenously administered. One of the rats was given metomidate (1 µmol/kg) I.V., for a blockage study. An initial dynamic PET scan of the abdomen was performed for 60 min, followed by a baseline whole body PET scan for 15 min.

[4] = system: CYP11B1 and CYP11B2 in NHP adrenal gland homogenate; assay: Saturation binding of [^18F]CETO in adrenal gland homogenate; set-up: species or system cynomolgus monkey (non-human primate; settings: saturation study
Protocol: as §1, §2, §3

[5] = system: normal NHP adrenal tissue; assay: In vitro association/dissociation kinetics (LigandTracer); set-up: species or system cynomolgus monkey (non-human primate; settings: 1:1 kinetic binding model, NHP adrenal homogenate
Protocol: To determine the in vitro kinetics for association and dissociation of [^18F]CETO to normal NHP adrenal tissue, 20 µL of homogenate, corresponding to 40 µg of adrenal, was pipetted to a Poly-D-lysine coated cell dish (CELLCOAT™, Greiner Bio-One GmbH, Austria) and allowed to dry for 15 min. Subsequently, the dishes were placed in the inclined rotating holder of a LigandTracer™ yellow instrument (Ridgeview Instruments AB, Uppsala, Sweden) and [^18F]CETO was added with concentrations ranging from 1 to 5 nM to measure the association rate. A higher concentration was added when the previous concentration had reached equilibrium. To measure the dissociation rate, the radioactive solution was replaced with buffer after the highest concentration reached equilibrium. Data were analyzed with TraceDrawer software (Ridgeview Instruments AB, Uppsala, Sweden) and the association rate constant (kon), dissociation rate constant (koff) and equilibrium dissociation constant (KD) were computed using a 1:1 kinetic binding model.

[6] = system: human adrenal tumours and normal adrenal gland; assay: Frozen section autoradiography; type: binding; settings: 0.03 nmol/L [^18F]CETO, 60 min
Protocol: Tissues from normal human adrenal glands, liver, kidney, spleen and small intestine were used along with samples of different types of adrenal tumours, aldosterone-producing adenomas (APA), cortisol-producing adenomas (CPA), ACC, and pheochromocytoma (PCC). Normal adrenal gland tissues and spleen tissues from non-human primates (NHPs) were also utilized.
Specimens for autoradiography were prepared from snap-frozen tissue, stored at -70 °C, and divided by a cryotome into 20 μm thick slices. The slices were placed on Superfrost^TM glass slides and stored at -20 °C until the autoradiographic examination. Slides were pre-incubated at room temperature for 20 min in a PBS buffer. Duplicate slides were incubated in 0.03 nmol/L [^18F]CETO for 60 min, in the presence or absence of an excess of metomidate (0.45 µmol/L) to block the specific binding of [^18F]CETO. After incubation, slides were washed for 3 × 3 min in cold PBS buffer, followed by rapid immersion in water. Slides were then dried for 10 min at 37 °C and exposed to Super Resolution Storage Phosphor Screens (PerkinElmer, Downers Grove, IL, USA) for >240 min and scanned in a Cyclone Plus Phosphor Imager (PerkinElmer, Model C431200, Downers Grove, IL, USA).

[7] = Ex-vivo organ distribution in rats; set-up: species or system Sprague Dawley rats
Protocol: A biodistribution study for [^18F]CETO was performed in thirty Sprague Dawley rats. A dose of 5.4±0.9 MBq [^18F]CETO was injected as a bolus in the lateral tail vein, to un-sedated rats. Three rats of each gender were then euthanized by high concentrations of CO2, at five predetermined time points; 10, 30, 60, 120 and 240 min post injection (p.i.), respectively, and their organs were harvested and weighed. Radioactivity content in the organs was measured in a well-type NaI(Tl) scintillation counter, applying correction for dead-time and for decay. The organ radioactivity readings were decay-corrected to the time of injection, and results were expressed as standardized uptake values (SUV).

[8] = Radio metabolite analysis of [^18F]CETO in NHP plasma; type: in vivo, Macaca fascicularis; settings: for intact [^18F]CETO: NHP venous plasma
[9] = Observation of adverse effects after tracer injection, NHP; type: in vivo, Macaca fascicularis; settings: recovery post-anaesthesia
Description: After the imaging sessions, the NHP was wakened and de-intubated and, once stable, transported back to its living facility.

[10] = Observation of adverse effects after tracer injection, rats; settings: rats following [^18F]CETO injection

Question: What does the source list for `C[C@H](c1ccccc1)n1cncc1C(=O)O[11CH3]` [[^11C]MTO, [^11C]Metomidate, reference compound]?
Answer: highest adrenal-to-liver ratio ([1]; NHP, 40 minutes p.i.): 1.5; time of peak uptake in the adrenal glands ([1]; NHP): approximately 40 min p.i.

Question: With `C[C@H](c1ccc(Cl)cc1)n1cncc1C(=O)OCCF` [CETO] as the molecule, how does the pIC50 [2] read?
Answer: 8.30

Question: Which “blocking of adrenal uptake with metomidate” value ([3]; metomidate 1 µmol/kg) does the source give for `C[C@H](c1ccccc1)n1cncc1C(=O)OCC[18F]` [[^18F]FETO, 2-[^18F]fluoroethyl-etomidate] here?
Answer: unable to block; also recorded: not possible to block

Question: For `C[C@H](c1ccc(Cl)cc1)n1cncc1C(=O)OCC[18F]` [[^18F]CETO, para-chloro-2-[^18F]fluoroethyl-etomidate], which Bmax [4] is on record?
Answer: 0.0082 to 0.0097 nmol/mg

Question: What about the pKd ([4]; room temperature, 60 min, read-out: equilibrium dissociation constant, Kd) of the same molecule?
Answer: 9.18 and 9.17 to 9.18 and 9.17

Question: What about the Bmax ([4]; separate experiments A and B) of the same molecule?
Answer: 0.0097 nmol/mg and 0.0082 nmol/mg

Question: What about the koff [5] of the same molecule?
Answer: 0.00035 s⁻¹

Question: And the pKd ([5]; read-out: Kd value derived from the rate constants)?
Answer: 9.23

Question: What about the “uptake in APAs compared to that of the normal adrenal gland” value [6] of the same molecule?
Answer: approximately threefold

Question: And the “time of peak uptake in the adrenal glands” value ([7]; ex-vivo biodistribution)?
Answer: 2 hr p.i.

Question: And the “uptake in all other organs and tissues (SUV)” value ([7]; other than adrenal glands and early lungs and pancreas, bone and urinary bladder are exceptions)?
Answer: ~1 SUV

Question: And the route of elimination [3]?
Answer: mainly renal

Question: What about the “time of peak adrenal uptake” value [3] of the same molecule?
Answer: 120 min p.i.

Question: And the highest adrenal-to-liver ratio ([1]; NHP, 85 min p.i.)?
Answer: > 5

Question: What about the “time of peak uptake in the adrenal glands” value ([1]; NHP) of the same molecule?
Answer: > 85 min p.i.

Question: And the “rate constant k3 in the adrenal glands after blocking” value ([1]; NHP, after etomidate 0.5 mg/kg, irreversible two-tissue compartment model)?
Answer: reduced to zero

Question: What about the route of elimination ([1]; NHPs) of the same molecule?
Answer: mainly renal

Question: What about the “intact [^18F]CETO” value ([8]; 5 min p.i.) of the same molecule?
Answer: 56%

Question: And the “intact [^18F]CETO” value ([8]; 80 min p.i.)?
Answer: 11%

Question: What about the “[^18F]CETO share of radioactivity in plasma” value ([8]; NHP, final observation time point 90 min p.i.) of the same molecule?
Answer: approximately 10%

Question: What about the half-life ([8]; female, cynomolgus monkey, plasma, intravenous, NHP, bi-phasic metabolism, read-out: plasma half-life, fast first phase) of the same molecule?
Answer: ~10 min

Question: What about the adverse effects [9] of the same molecule?
Answer: no adverse effects

Question: And the adverse effects [10]?
Answer: No adverse effects

Question: With `COC(=O)c1cncn1C(C)c1ccccc1` (centres unmarked) [MTO, metomidate] as the molecule, how does the pIC50 [2] read?
Answer: 8.70

Question: With `C[C@H](c1ccccc1)n1cncc1C(=O)OCCF` [FETO] as the molecule, how does the pIC50 [2] read?
Answer: 8.52
